Test results from patent publication US9128088B2 (priority 2008, dated 2015).
Values after ≈ are worked out from the molar mass of the structure shown.

Legend:
Experiment in all cases: microbe, parasite or virus in culture
[1] = system: M. bovis BCG; type: cell-based; settings: Mycobacterium tuberculosis variant bovis BCG
[2] = system: M. smegmatis mc^2155; type: cell-based, Mycobacterium smegmatis; settings: Mycolicibacterium smegmatis
[3] = system: M. tuberculosis H37Rv; type: cell-based; settings: Mycobacterium tuberculosis

NNC(=O)c1ccncc1 [Isoniazid, isoniazid]
MIC [1]: 0.05 mg/L (≈ 0.365 µM) | MIC [2]: 16 mg/L (≈ 117 µM) | MIC [3]: 0.05 mg/L (≈ 0.365 µM)
